One experiment deals with T1, Neutrophil elastase (Homo sapiens, UniProt P08246).
T1 sequence (P08246 whole entry): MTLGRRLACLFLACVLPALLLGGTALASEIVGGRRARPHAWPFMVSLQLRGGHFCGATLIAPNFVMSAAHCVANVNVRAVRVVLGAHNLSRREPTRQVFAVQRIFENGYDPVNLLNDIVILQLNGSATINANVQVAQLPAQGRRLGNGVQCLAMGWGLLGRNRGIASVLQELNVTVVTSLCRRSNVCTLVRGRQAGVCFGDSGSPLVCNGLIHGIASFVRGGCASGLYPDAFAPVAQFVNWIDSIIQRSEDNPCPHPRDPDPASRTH
Test: not given
Type of experiment: tissue-based.
Conditions: not given
Sequence of Prostaglandin G/H synthase 1 (P23219 whole entry): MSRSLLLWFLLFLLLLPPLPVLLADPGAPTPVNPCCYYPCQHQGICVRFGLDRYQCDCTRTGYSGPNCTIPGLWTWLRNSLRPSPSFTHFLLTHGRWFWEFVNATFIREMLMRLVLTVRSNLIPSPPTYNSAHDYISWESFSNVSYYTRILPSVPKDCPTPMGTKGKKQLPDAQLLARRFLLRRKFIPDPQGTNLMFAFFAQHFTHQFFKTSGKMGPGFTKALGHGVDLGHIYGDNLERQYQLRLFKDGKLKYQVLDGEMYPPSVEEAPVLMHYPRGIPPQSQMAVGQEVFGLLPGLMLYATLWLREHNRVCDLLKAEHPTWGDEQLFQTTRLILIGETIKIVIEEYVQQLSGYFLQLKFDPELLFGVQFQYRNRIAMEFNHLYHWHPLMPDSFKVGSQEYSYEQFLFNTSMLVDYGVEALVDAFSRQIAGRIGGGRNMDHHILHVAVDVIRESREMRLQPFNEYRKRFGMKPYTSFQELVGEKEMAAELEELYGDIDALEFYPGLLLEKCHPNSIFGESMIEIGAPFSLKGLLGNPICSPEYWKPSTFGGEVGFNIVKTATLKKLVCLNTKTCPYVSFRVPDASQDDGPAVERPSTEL
With `ClC(Cl)Cl` [CHLOROFORM], the IC50 entry is reported as “Not Active”.
Same read-out and setting: as for `C=C1CC[C@H](O)C/C1=C/C=C1\CCC[C@]2(C)[C@@H]([C@H](C)CCCC(C)C)CC[C@@H]12` [CHOLECALCIFEROL], the entry is “Not Active”; as for `C[N+](C)(C)CCO.[Cl-]` [CHOLINE CHLORIDE], “Not Active”.

The next experiment has as its target Prostaglandin G/H synthase 1 (Homo sapiens, UniProt P23219). As to the kind of experiment: biochemical. Type of experiment: tissue-based, Platelet. Conditions: platelet.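 Also: inhibition of COX-1 enzyme activity, with arachidonic acid supplied as substrate; in other assays of this panel Not Active means under 50% inhibition at 10 µM.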
As for `ClC(Cl)Cl` [CHLOROFORM], the IC50 result was “Not Active”.
Same read-out and setting: the same measure for `C=C1CC[C@H](O)C/C1=C/C=C1\CCC[C@]2(C)[C@@H]([C@H](C)CCCC(C)C)CC[C@@H]12` [CHOLECALCIFEROL]: “Not Active”; for `C[N+](C)(C)CCO.[Cl-]` [CHOLINE CHLORIDE]: “Not Active”.

A further experiment addresses T2, C-X-C chemokine receptor type 1 (Homo sapiens, UniProt P25024).
T2 sequence (P25024 whole entry): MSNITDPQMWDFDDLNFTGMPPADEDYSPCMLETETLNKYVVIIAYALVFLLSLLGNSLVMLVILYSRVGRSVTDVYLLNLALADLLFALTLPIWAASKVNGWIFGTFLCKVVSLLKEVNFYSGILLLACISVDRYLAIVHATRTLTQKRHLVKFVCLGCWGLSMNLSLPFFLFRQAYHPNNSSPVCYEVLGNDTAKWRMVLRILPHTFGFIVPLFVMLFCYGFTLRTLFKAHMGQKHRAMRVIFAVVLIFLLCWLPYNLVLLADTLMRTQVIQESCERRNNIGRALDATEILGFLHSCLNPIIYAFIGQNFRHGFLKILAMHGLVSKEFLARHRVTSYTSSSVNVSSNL
Test: not given
Conditions: not given
As to `ClC(Cl)Cl` [CHLOROFORM], the IC50 result is given as “Not Active”.
Still for that read-out and setting: the same measure for `C=C1CC[C@H](O)C/C1=C/C=C1\CCC[C@]2(C)[C@@H]([C@H](C)CCCC(C)C)CC[C@@H]12` [CHOLECALCIFEROL]: “Not Active”.
On to `C[N+](C)(C)CCO.[Cl-]` [CHOLINE CHLORIDE], for which the IC50 result is given as “Not Active”.

The target in a further experiment is T3, Cathepsin G (Homo sapiens, UniProt P08311).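 Also: inhibition of Cathepsin G enzyme activity, tested on an AMC-conjugated peptide substrate; in other assays of this panel Not Active means under 50% inhibition at 10 µM.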
T3 sequence (P08311 whole entry): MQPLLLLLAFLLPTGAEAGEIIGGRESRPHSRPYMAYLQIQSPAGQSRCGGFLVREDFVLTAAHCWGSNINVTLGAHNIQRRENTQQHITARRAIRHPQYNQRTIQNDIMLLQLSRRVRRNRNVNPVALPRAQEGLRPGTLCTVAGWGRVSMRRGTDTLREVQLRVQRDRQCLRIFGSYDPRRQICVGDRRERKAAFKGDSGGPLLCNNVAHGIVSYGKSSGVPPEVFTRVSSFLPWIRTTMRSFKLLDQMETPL
Test: not given
The experiment is classed as tissue-based. Conditions: neutrophil.
Regarding `ClC(Cl)Cl` [CHLOROFORM], the IC50 result is on record as “Not Active”.
The same measure, in the same setting: as for `C=C1CC[C@H](O)C/C1=C/C=C1\CCC[C@]2(C)[C@@H]([C@H](C)CCCC(C)C)CC[C@@H]12` [CHOLECALCIFEROL], the entry is “Not Active”; as for `C[N+](C)(C)CCO.[Cl-]` [CHOLINE CHLORIDE], “Not Active”.

A further experiment addresses Glycine receptor (Rattus norvegicus, UniProt P22771+P24524+P07727+P20781).
Test: not given
Conditions: not given
The experiment is classed as cell membranes, Wistar, Spinal cord, Membrane.
As to `ClC(Cl)Cl` [CHLOROFORM], the IC50 entry was “Not Active”.
Turning to `C=C1CC[C@H](O)C/C1=C/C=C1\CCC[C@]2(C)[C@@H]([C@H](C)CCCC(C)C)CC[C@@H]12` [CHOLECALCIFEROL], the IC50 result is “Not Active”.
The same measure, in the same setting: the same measure for `C[N+](C)(C)CCO.[Cl-]` [CHOLINE CHLORIDE]: “Not Active”.

For a further experiment, the target named is T4, Thromboxane-A synthase (Homo sapiens, UniProt P24557).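 Also: enzyme inhibition assay with PGH2 supplied as substrate; in other assays of this panel Not Active means under 50% inhibition at 10 µM.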
T4 sequence (P24557 whole entry): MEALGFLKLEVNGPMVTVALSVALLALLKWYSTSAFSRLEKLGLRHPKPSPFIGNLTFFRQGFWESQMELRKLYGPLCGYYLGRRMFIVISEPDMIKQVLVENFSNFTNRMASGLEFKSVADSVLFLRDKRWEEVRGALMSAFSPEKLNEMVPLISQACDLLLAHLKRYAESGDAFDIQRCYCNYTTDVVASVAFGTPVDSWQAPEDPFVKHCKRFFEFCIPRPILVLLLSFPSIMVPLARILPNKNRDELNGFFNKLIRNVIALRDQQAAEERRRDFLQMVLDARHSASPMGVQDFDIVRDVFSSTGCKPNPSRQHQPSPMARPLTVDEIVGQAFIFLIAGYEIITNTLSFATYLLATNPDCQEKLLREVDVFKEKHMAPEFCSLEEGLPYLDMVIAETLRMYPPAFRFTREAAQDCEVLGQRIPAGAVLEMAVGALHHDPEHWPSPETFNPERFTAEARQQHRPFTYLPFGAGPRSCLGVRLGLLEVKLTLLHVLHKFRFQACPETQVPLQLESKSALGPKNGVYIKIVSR
As to the kind of experiment: biochemical. Conditions: platelet. The experiment is classed as tissue-based, Platelet.
Regarding `ClC(Cl)Cl` [CHLOROFORM], the IC50 result was “Not Active”.
The same measure, in the same setting: the same measure for `C=C1CC[C@H](O)C/C1=C/C=C1\CCC[C@]2(C)[C@@H]([C@H](C)CCCC(C)C)CC[C@@H]12` [CHOLECALCIFEROL]: “Not Active”; for `C[N+](C)(C)CCO.[Cl-]` [CHOLINE CHLORIDE]: “Not Active”.

For another experiment, the target named is T5, Interstitial collagenase (Homo sapiens, UniProt P03956).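 Also: MMP-1 enzyme inhibition assay using a peptide substrate; in other assays of this panel Not Active means under 50% inhibition at 10 µM.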
T5 sequence (P03956 whole entry): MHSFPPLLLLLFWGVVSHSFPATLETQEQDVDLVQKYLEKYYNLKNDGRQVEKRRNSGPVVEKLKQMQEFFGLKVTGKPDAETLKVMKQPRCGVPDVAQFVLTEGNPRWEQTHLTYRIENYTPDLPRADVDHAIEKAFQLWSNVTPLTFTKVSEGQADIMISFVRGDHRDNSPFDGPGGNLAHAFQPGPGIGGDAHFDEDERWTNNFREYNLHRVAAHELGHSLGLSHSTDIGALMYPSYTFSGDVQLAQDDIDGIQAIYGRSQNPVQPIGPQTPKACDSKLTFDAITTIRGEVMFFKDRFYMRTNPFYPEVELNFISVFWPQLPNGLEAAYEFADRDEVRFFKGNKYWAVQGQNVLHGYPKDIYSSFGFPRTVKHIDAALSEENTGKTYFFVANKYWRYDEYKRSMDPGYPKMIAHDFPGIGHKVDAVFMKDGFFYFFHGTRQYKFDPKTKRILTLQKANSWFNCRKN
As to the kind of experiment: biochemical. The experiment is classed as tissue-based, Rheumatoid synovial fibroblasts.
Conditions: not given
As to `ClC(Cl)Cl` [CHLOROFORM], the IC50 entry is “Not Active”.
Still for that read-out and setting: the same measure for `C=C1CC[C@H](O)C/C1=C/C=C1\CCC[C@]2(C)[C@@H]([C@H](C)CCCC(C)C)CC[C@@H]12` [CHOLECALCIFEROL]: “Not Active”.
The same measure, in the same setting: the same measure for `C[N+](C)(C)CCO.[Cl-]` [CHOLINE CHLORIDE]: “Not Active”.

A further experiment has as its target T6, Alpha-1B adrenergic receptor (Rattus norvegicus, UniProt P15823).
T6 sequence (P15823 whole entry): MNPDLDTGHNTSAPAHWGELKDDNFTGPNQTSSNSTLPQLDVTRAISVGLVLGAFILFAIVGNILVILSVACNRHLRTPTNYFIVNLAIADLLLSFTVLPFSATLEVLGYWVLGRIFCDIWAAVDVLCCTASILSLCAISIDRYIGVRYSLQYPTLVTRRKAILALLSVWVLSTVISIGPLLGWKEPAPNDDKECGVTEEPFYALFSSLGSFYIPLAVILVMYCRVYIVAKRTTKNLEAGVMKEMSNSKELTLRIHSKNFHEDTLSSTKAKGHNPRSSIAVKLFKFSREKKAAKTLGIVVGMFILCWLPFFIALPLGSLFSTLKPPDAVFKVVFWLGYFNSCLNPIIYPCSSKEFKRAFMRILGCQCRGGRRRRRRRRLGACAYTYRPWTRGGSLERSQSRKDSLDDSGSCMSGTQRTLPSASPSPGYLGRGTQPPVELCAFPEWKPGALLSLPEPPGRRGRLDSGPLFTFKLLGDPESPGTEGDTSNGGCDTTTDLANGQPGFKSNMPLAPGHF
As to the kind of experiment: DRUGMATRIX: Alpha-1B adrenergic receptor radioligand binding (ligand: prazosin). Conditions: Not Active = under 50% inhibition at 10 µM. The experiment is classed as cell membranes, Wistar, Liver, Membrane.
For the compound `ClC(Cl)Cl` [CHLOROFORM], the IC50 result is “Not Active”.
The same measure, in the same setting: as for `C=C1CC[C@H](O)C/C1=C/C=C1\CCC[C@]2(C)[C@@H]([C@H](C)CCCC(C)C)CC[C@@H]12` [CHOLECALCIFEROL], the entry is “Not Active”; as for `C[N+](C)(C)CCO.[Cl-]` [CHOLINE CHLORIDE], “Not Active”.

The target in the next experiment is T7, Leukotriene C4 synthase (Cavia porcellus, UniProt A6XA80).
T7 sequence (A6XA80 whole entry): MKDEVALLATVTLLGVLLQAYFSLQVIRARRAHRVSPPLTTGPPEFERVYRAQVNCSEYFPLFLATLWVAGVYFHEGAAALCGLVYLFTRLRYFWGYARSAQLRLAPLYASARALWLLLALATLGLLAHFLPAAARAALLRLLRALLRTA
Test: not given
The experiment is classed as tissue-based, Lung.
Conditions: not given
With `ClC(Cl)Cl` [CHLOROFORM], the IC50 result is on record as “Not Active”.
For `C=C1CC[C@H](O)C/C1=C/C=C1\CCC[C@]2(C)[C@@H]([C@H](C)CCCC(C)C)CC[C@@H]12` [CHOLECALCIFEROL], the IC50 entry is “Not Active”.
Turning to `C[N+](C)(C)CCO.[Cl-]` [CHOLINE CHLORIDE], the IC50 result is “Not Active”.

The values are drawn from ChEMBL document CHEMBL1909046, “DrugMatrix in vitro pharmacology data”.
